Laboratory results reported in patent US12390423B2 (priority 2019, dated 2025).
Entries after “also recorded” stand apart in the source; their conditions may differ.

What was measured:
INS-1 (832/13) cells [1] = assay: High resolution respirometry in INS-1 (832/13) cells; assay type: cell-based, rat
Protocol: Cells treated with test compounds for 24 h were trypsinized, counted, and resuspended in phosphate buffer saline (PBS). High-resolution O2 consumption measurements were conducted in 2 ml of respiration medium (PBS, pH 7.5, stir speed 750 rpm) using the Oroboros Oxygraph-2k (Oroboros Instruments, Corp., Innsbruck, Austria) set to 37° C. with a gain of 2 in both chambers. Briefly, after the injection of 5 million treated INS-1 (832/13) cells or C2C12 myotubes per chamber, basal respiration was measured once steady-state respiratory flux was obtained; this represents coupled respiration fueled by available substrates from the incubation with test compounds. Uncoupled respiration was then measured following addition of the ATP synthase inhibitor oligomycin (0.25 μM). This was followed by measuring maximal respiratory rate by stepwise titration of carbonyl cyanide p-trifluoromethoxy phenyl hydrazone (FCCP; within 0.1-0.25 μM) in the presence of 1 mmol/L pyruvate. Finally, respiration was inhibited by addition of rotenone (0.5 μM; complex I inhibitor) to obtain extra-mitochondrial residual oxygen consumption. Data was recorded with DatLab software (Oroboros Instruments, Innsbruck, Austria), oxygen consumption at each step of the protocol was normalized to vehicle control and illustrated in histograms. For all HRR protocols, cell viability was determined after trypsinization and also after end of HRR runs via trypan blue cell staining and counting using a hemocytometer. No significant differences in cell viability between control and treated cells were observed.
Additionally, to indirectly assess metabolic flexibility, cells were treated the same way as described, collected and subjected to a 15 min treatment of 10 mM D-glucose before being washed and injected into the respirometer; these experiments were done to assess if cells incubated in low glucose/high fat conditions for 24 h can easily switch to glucose utilization upon acute incubation with D-glucose.

INS-1 (832/13) cells [2] = assay: Cytosolic calcium determination (fluo-3AM) in INS-1 (832/13) cells; assay type: cell-based, rat; conditions: 0.5 mM palmitate, non-stimulatory glucose, AvoB 25 μM, ETO 100 μM, TMB-8 10 μM
Protocol: INS-1 (832/13) cells were treated as described for the FAO assays but also with metabolic modulators dichloroacetate (DCA) (1 mM) and trimetazidine (25 μM) as well as 10 μM endoplasmic reticulum calcium blocker 8-(N,N-Diethylamino)-octyl-3,4,5-trimethoxybenzoate HCl (TMB-8) (Sigma Aldrich) or 25 nM cyclosporin (Sigma Aldrich) in the presence of 0.5 mM palmitate/1 mM L-carnitine. Cytosolic calcium was measured in INS-1 (832/13) cells using fluo-3AM (Invitrogen, F1241) charged fluorescent dye that accumulates in the cytosol and emits green fluorescence after binding calcium ions. A stock solution of 10 mM fluo-3AM was diluted to 5 μM in fluo-3AM loading buffer (10 mM 4-(2-hydroxyethyl)-1-piperazineethanesulfonic acid (HEPES), 137 mM NaCl, […], 1 mM Na2HPO4, 5 mM glucose, and 0.5 mM MgCl2 (pH 7.4)]. After treatment, cells were incubated in fluo-3AM loading buffer for 30 min at 37° C. with gentle agitation after which cells were washed twice with PBS, trypsinized and collected for flow cytometry analysis. Cytosolic calcium was quantified by taking the mean green fluorescence values of live gated cells and normalizing to vehicle control.

INS-1 (832/13) cells [3] = assay: Cell viability (propidium iodide, flow cytometry) in INS-1 (832/13) cells; assay type: cell-based; conditions: AvoB 24 h
Protocol: Quantitative analysis of cell death was evaluated by flow cytometry using propidium iodide staining (Biovision, Mountainview, CA), where specified, according to the manufacturer's protocol and as previously described^28. Viable cells were identified as PI negative (PI−).

[4] = Avocatin B oral consumption pilot clinical study (Phase I, NCT03898505)
Protocol: A single center, double-blind, placebo-controlled, randomized, pilot clinical study was executed to determine the safety of consuming 50 mg (equivalent to consuming a quarter Hass avocado pulp) or 200 mg (equivalent to consuming one Hass avocado pulp) AvoB per day for 60 days in healthy human participants (NCT03898505).
The investigational product was approved by Health Canada (natural product number (NPN) 80074296). To create the product, freeze-dried avocado pulp powder was sourced from Avocado Oil New Zealand Ltd., (Tauranga, New Zealand) and tested for absolute quantities of AvoB per gram of powder using a validated analytical method^61. Clinical trial material was then standardized to contain low dose (50 mg) or high dose (200 mg) AvoB (FIG. 9). The placebo product was formulated similarly to the investigational product except it only contained the non-medicinal food-grade ingredients used in the test product and other excipients that were used to simulate appearance, smell, texture and taste of the investigational product. Participants in every group consumed 40 g of material per day for 60 days by dissolving/blending the product in 12-16 ounces of a smoothie like diluent (e.g., milk (with or without lactose), soy milk, coconut milk, or fruit juice of the participant's choice). All three products were approximately matched for total calories per serving.
Healthy volunteers (13 males and 17 females; age range 20-54 years, BMI range 19.1-29.9) were enrolled in the study. Exclusion criteria were: presence of active clinical disease and history of diabetes, hypertension, dyslipidemia, major depressive disorders, chronic liver disorders, kidney disorders, or blood disorders. […] Primary outcome was the analysis of adverse experiences (AEs) measured throughout the study. Secondary outcomes were to ascertain safety and tolerability which were assessed through clinically relevant changes in standard laboratory evaluations (blood chemistry and hematology) measured on days 0, 30 and 60. Body mass index (BMI) and glycated hemoglobin (HbA1c) were also measured as part of secondary outcomes. […]
Mean change from baseline at day 30 and 60 for all laboratory evaluations and body weight were analysed by the non-parametric Kruskal-Wallis—One-Way Analysis of Variance on Ranks. using GraphPad Prism 6.0 (GraphPad Software, USA) where differences with p<0.05 were considered to be statistically significant. AEs were tabulated (for all randomized patients who received at least one dose of study supplements) and analyzed using Fisher's exact test of independence in Statistical Analysis System (SAS) university edition where differences with p<0.05 were considered to be statistically significant.

avocatin B [AvoB]
Respiration after 10 mM glucose challenge (HRR, metabolic flexibility) (INS-1 (832/13) cells [1]; 25 μM AvoB, 0.25 mM palmitate 24 h, then 10 mM glucose 15 min, vs palmitate-only): increased basal and maximal respiration compared to the palmitate-only control
Palmitate supported respiration (OCR, HRR) (INS-1 (832/13) cells [1]; 25 μM AvoB, 0.25 mM palmitate-BSA/1 mM L-carnitine, 24 h): inhibited palmitate supported basal and maximal-uncoupled respiration
Concentration imparting FAO inhibition relative to etomoxir (INS-1 (832/13) cells [1]; AvoB 25 μM vs etomoxir 100 μM): four-fold lower than etomoxir
Cytosolic Ca2+ (Fluo-3AM) (INS-1 (832/13) cells [2]): able to reduce cytosolic Ca^2+
Cell viability (INS-1 (832/13) cells [3]): no effect on cell viability
Body weight change between baseline and day 30 ([4]; both AvoB supplemented groups relative to placebo, trend, not statistically significant (p=0.10)): decreases in body weight
Change from baseline in body mass index or glycated hemoglobin (HbA1c) ([4]; either AvoB treated group compared to placebo): No clinically relevant changes from baseline
Overall tolerability / toxicity (adverse events) ([4]; healthy human participants, 50 or 200 mg AvoB/day for 60 days): generally well-tolerated; also recorded: exerted no toxicity
